Values quoted from earlier work as cited in patent publication US7985432B2, “Insect repellent” (Bioniche Life Sciences, Inc., priority 2003, dated 2011).

Tested on: Mosquitoes

In the case of `CC1=COC(=O)C2C(C)CCC12` (stereo not shown) [Nepetalactone], the “Effectiveness at repelling mosquitoes relative to DEET” value is given as “about ten times more effective at repelling mosquitoes than DEET”.
